Data: publication PMC9688344, “[^225Ac]Ac-SibuDAB for Targeted Alpha Therapy of Prostate Cancer: Preclinical Evaluation and Comparison with [^225Ac]Ac-PSMA-617” (Cancers, 2022)

Tested on: immunocompetent FVB mice
Experiment: Tolerability study in immunocompetent mice
Assay type: in vivo
Description: Five- to six-week-old immunocompetent, female FVB mice were purchased from Charles River Laboratories (Sulzfeld, Germany). After an acclimatization period of at least 7 days, the mice (n = 5 per group) were intravenously injected with 30 kBq [^225Ac]Ac-SibuDAB or 30 kBq [^225Ac]Ac-PSMA-617 and additional mice (n = 7 per group) remained untreated as controls. Mice were monitored by measuring their body mass and potential signs of pain or unease three times a week (Supplementary Material: Section S7). The mice were euthanized on Day 10, Day 28 or on Day 56, respectively, and variable parameters were assessed from blood and tissue samples.
Hematological analysis was performed using blood samples taken by cardiac puncture immediately after euthanasia. Blood and bone marrow smears were prepared and stained using the Pappenheim protocol. The assessment was carried out by a board-certified veterinary anatomic pathologist (AnaPath Services GmbH, Liestal, Switzerland). Blood plasma parameters were determined in plasma after centrifugation of blood samples obtained shortly before euthanasia (Supplementary Material: Section S7).
Tissue sections of formalin-fixed paraffin-embedded (FFPE) spleen, salivary glands and kidneys were prepared and stained with hematoxylin and eosin (H&E) by AnaPath Services GmbH (Liestal, Switzerland). The tissues were analyzed by a board certified veterinary pathologist using a pre-defined scoring system (Supplementary Material: Section S7). […]
The percentage of radioligand bound to mouse or human plasma (A bound) was plotted against the molar ratios of MSA/HSA to radioligand and fitted with a nonlinear regression curve (specific binding with Hill slope, Bmax set to 100%) using GraphPad Prism software (version 8) to obtain the half maximum binding (B 50).
Results: The results are reported in the main article.
Purpose: A tolerability study with normal, immunocompetent FVB mice was con-ducted in order to assess potential side effects to the bone marrow, spleen, salivary glands and kidneys after the application of high activities of the 225Ac-labeled PSMA radioligands.
Methods: Monitoring Body Mass and Signs of Unease: Mice were monitored by meas-uring their body mass (BM) three times a week. The body masses were expressed as the relative body mass, defined as [BMx/BM0], where BMx is the body mass in grams on a given Day x and BM0 is the body mass in grams on Day 0. Endpoint criteria, defined as (i) >15% loss in body mass, (ii) signs of unease and pain or a combination thereof based on a scoring system, were not reached in this stu dy.
Hematology: Blood cell counts were determined in blood samples taken by cardiac puncture immediately after euthanasia and collected in EDTA tubes (Microvette® 100 K3 EDTA, Sarstedt, Germany). Leukocyte, lymphocyte, erythrocyte and thrombocyte counts as well as hemoglobin and hematocrit values were determined using a hematology ana-lyzer (VetScan HM5, Abaxis, United States). Blood smears were prepared on glass slides with cardiac blood. The bone marrow was collected from the femur, diluted in FCS/H2O (2:1 v/v) and smeared onto microscopy slides using a paintbrush. The slides were stained with a May Grünwald solution and subsequently with diluted Giemsa solution using the Pappenheim method and covered with coverslips using mounting medium (Pertex).
The assessment of potential morphological ch anges of the blood cells and counting of the subgroups of leukocytes was performed by a board-certified veterinary pathologist (Ana-Path Services GmbH, Liestal, Switzerland).
Histopathological Analysis: Spleen, salivary glands and kidneys were formalin-fixed and paraffin-embedded. Tissue sections were stained with hematoxylin & eosin (H&E) […]
Blood Plasma Parameters: Blood plasma parameters were determined in plasma ob-tained from centrifuged retrobulbar blood samples collected in lithium-heparin tubes (Mi-crovette® 200 LH, SARSTEDT). The concentrations of blood urea nitrogen (BUN), alkaline […]

CC(C)Cc1ccc(C(C)C(=O)NC(CCN)C(=O)NCCCCC(NC(=O)CN2CCN(CC(=O)[O-])CCN(CC(=O)[O-])CCN(CC(=O)[O-])CC2)C(=O)NCC2CCC(C(=O)NC(Cc3ccc4ccccc4c3)C(=O)NCCCCC(NC(=O)NC(CCC(=O)O)C(=O)O)C(=O)O)CC2)cc1.[225Ac+3] (centres unmarked) [[^225Ac]Ac-SibuDAB]
Tolerability (body mass) (30 kBq per mouse, until Day 56): well tolerated
Kidneys: Hyperplasia/hypertrophy, tubular, incidence (Day 10, 30 kBq): 0
Kidneys: Hyperplasia/hypertrophy, tubular, score average (Day 10, 30 kBq): 0.0
Kidneys: Hypertrophy/hyperplasia, tubular with ectasia, incidence (Day 10, 30 kBq): 0
Kidneys: Hypertrophy/hyperplasia, tubular with ectasia, score average (Day 10, 30 kBq): 0.0
Kidneys: Inflammatory cells, interstitium, incidence (Day 10, 30 kBq): 0
Kidneys: Inflammatory cells, interstitium, score average (Day 10, 30 kBq): 0.0
Kidneys: Inflammatory cells, pelvis, incidence (Day 10, 30 kBq): 0
Kidneys: Inflammatory cells, pelvis, score average (Day 10, 30 kBq): 0.0
Kidneys: Mineralization, papilla, incidence (Day 10, 30 kBq): 0
Kidneys: Mineralization, papilla, score average (Day 10, 30 kBq): 0.0
Kidneys: Tubular basophilia, incidence (Day 10, 30 kBq): 0
Kidneys: Tubular basophilia, score average (Day 10, 30 kBq): 0.0
Salivary glands: Ductal hyperplasia with inflammatory cells, incidence (Day 10, 30 kBq): 0
Salivary glands: Ductal hyperplasia with inflammatory cells, score average (Day 10, 30 kBq): 0.0
Salivary glands: Hypertrophy acinar, sublingual, incidence (Day 10, 30 kBq): 0
Salivary glands: Hypertrophy acinar, sublingual, score average (Day 10, 30 kBq): 0.0
Salivary glands: Mononuclear cell foci, incidence (Day 10, 30 kBq): 1
Salivary glands: Mononuclear cell foci, score average (Day 10, 30 kBq): 1.0
Salivary glands: Necrosis, multifocal, serous acinar cells, incidence (Day 10, 30 kBq): two out of five
Salivary glands: Necrosis, multifocal, serous acinar cells, score average (Day 10, 30 kBq): 1.0
Salivary glands: Vacuolation, incidence (Day 10, 30 kBq): 1
Salivary glands: Vacuolation, score average (Day 10, 30 kBq): 1.0
Spleen: Extramedullary hematopoiesis, incidence (Day 10, 30 kBq): 5
Spleen: Extramedullary hematopoiesis, score average (Day 10, 30 kBq): 1.2
Spleen: Hyperplasia, lymphoid, incidence (Day 10, 30 kBq): 1
Spleen: Hyperplasia, lymphoid, score average (Day 10, 30 kBq): 1.0
Spleen: Pigment, incidence (Day 10, 30 kBq): 5
Spleen: Pigment, score average (Day 10, 30 kBq): 1.0
mice with relative increase of neutrophilic blasts (metamyelocytes) in peripheral blood (Day 10, 30 kBq): one out of five
myelopoiesis in bone marrow smears (group value) (Day 10, 30 kBq): 66%
Salivary glands: Necrosis, multifocal, serous acinar cells, incidence (Day 10, 30 kBq, listed as [225Ac]Ac-SibuDAB): 2
Bone marrow % E (Day 10, mouse M1): 30%
Bone marrow % M (Day 10, mouse M1): 70%
Bone marrow smear, Notes (Day 10, mouse M1): More blasts, neutrophilic row
Bone marrow % E (Day 10, mouse M2): 50%
Bone marrow % M (Day 10, mouse M2): 50%
Bone marrow % E (Day 10, mouse M3): 40%
Bone marrow % M (Day 10, mouse M3): 60%
Blood smear, Notes (Day 10, mouse M4): More neutrophilic blasts (Metamyelocyte)
Bone marrow % E (Day 10, mouse M4): 30%
Bone marrow % M (Day 10, mouse M4): 70%
Bone marrow smear, Notes (Day 10, mouse M4): More blasts, neutrophilic row
Bone marrow % E (Day 10, mouse M5): 20%
Bone marrow % M (Day 10, mouse M5): 80%
Bone marrow smear, Notes (Day 10, mouse M5): More blasts, neutrophilic row
Albumin concentration in blood plasma (Day 28, 30 kBq): 26 ± 1 g/L
Blood urea nitrogen (Day 28, 30 kBq): 9.1 ± 1.1 mmol/L
Erythrocyte counts (Day 28, 30 kBq): 8.7 ± 0.3 × 10^12/L
Hematocrit (Day 28, 30 kBq): 43 ± 1%
Hemoglobin (Day 28, 30 kBq): 11.2 ± 0.5 g/dL
Kidneys: Hyperplasia/hypertrophy, tubular, incidence (Day 28, 30 kBq): 0
Kidneys: Hyperplasia/hypertrophy, tubular, score average (Day 28, 30 kBq): 0.0
Kidneys: Hypertrophy/hyperplasia, tubular with ectasia, incidence (Day 28, 30 kBq): 0
Kidneys: Hypertrophy/hyperplasia, tubular with ectasia, score average (Day 28, 30 kBq): 0.0
Kidneys: Inflammatory cells, interstitium, incidence (Day 28, 30 kBq): 1
Kidneys: Inflammatory cells, interstitium, score average (Day 28, 30 kBq): 1.0
Kidneys: Inflammatory cells, pelvis, incidence (Day 28, 30 kBq): 2
Kidneys: Inflammatory cells, pelvis, score average (Day 28, 30 kBq): 1.0
Kidneys: Mineralization, papilla, incidence (Day 28, 30 kBq): 0
Kidneys: Mineralization, papilla, score average (Day 28, 30 kBq): 0.0
Kidneys: Tubular basophilia, incidence (Day 28, 30 kBq): 0
Kidneys: Tubular basophilia, score average (Day 28, 30 kBq): 0.0
Salivary glands: Ductal hyperplasia with inflammatory cells, incidence (Day 28, 30 kBq): 0
Salivary glands: Ductal hyperplasia with inflammatory cells, score average (Day 28, 30 kBq): 0.0
Salivary glands: Hypertrophy acinar, sublingual, incidence (Day 28, 30 kBq): 1
Salivary glands: Hypertrophy acinar, sublingual, score average (Day 28, 30 kBq): 1.0
Salivary glands: Mononuclear cell foci, incidence (Day 28, 30 kBq): 3
Salivary glands: Mononuclear cell foci, score average (Day 28, 30 kBq): 1.0
Salivary glands: Necrosis, multifocal, serous acinar cells, incidence (Day 28, 30 kBq): completely absent
Salivary glands: Necrosis, multifocal, serous acinar cells, score average (Day 28, 30 kBq): 0.0
Salivary glands: Vacuolation, incidence (Day 28, 30 kBq): 0
Salivary glands: Vacuolation, score average (Day 28, 30 kBq): 0.0
Spleen: Extramedullary hematopoiesis, incidence (Day 28, 30 kBq): 5
Spleen: Extramedullary hematopoiesis, score average (Day 28, 30 kBq): 1.8
Spleen: Hyperplasia, lymphoid, incidence (Day 28, 30 kBq): 5
Spleen: Hyperplasia, lymphoid, score average (Day 28, 30 kBq): 1.2
Spleen: Pigment, incidence (Day 28, 30 kBq): 5
Spleen: Pigment, score average (Day 28, 30 kBq): 2.0
Salivary glands: Necrosis, multifocal, serous acinar cells, incidence (Day 28, 30 kBq, listed as [225Ac]Ac-SibuDAB): 0
Bone marrow % E (Day 28, mouse M1): 40%
Bone marrow % M (Day 28, mouse M1): 60%
Bone marrow % E (Day 28, mouse M2): 50%
Bone marrow % M (Day 28, mouse M2): 50%
Bone marrow % E (Day 28, mouse M3): 40%
Bone marrow % M (Day 28, mouse M3): 60%
Bone marrow % E (Day 28, mouse M4): 50%
Bone marrow % M (Day 28, mouse M4): 50%
Bone marrow % E (Day 28, mouse M5): 50%
Bone marrow % M (Day 28, mouse M5): 50%
Kidneys: Hyperplasia/hypertrophy, tubular, incidence (Day 56, 30 kBq): 1
Kidneys: Hyperplasia/hypertrophy, tubular, score average (Day 56, 30 kBq): 1.0
Kidneys: Hypertrophy/hyperplasia, tubular with ectasia, incidence (Day 56, 30 kBq): 0
Kidneys: Hypertrophy/hyperplasia, tubular with ectasia, score average (Day 56, 30 kBq): 0.0
Kidneys: Inflammatory cells, interstitium, incidence (Day 56, 30 kBq): 1
Kidneys: Inflammatory cells, interstitium, score average (Day 56, 30 kBq): 1.0
Kidneys: Inflammatory cells, pelvis, incidence (Day 56, 30 kBq): 1
Kidneys: Inflammatory cells, pelvis, score average (Day 56, 30 kBq): 1.0
Kidneys: Mineralization, papilla, incidence (Day 56, 30 kBq): 0
Kidneys: Mineralization, papilla, score average (Day 56, 30 kBq): 0.0
Kidneys: Tubular basophilia, incidence (Day 56, 30 kBq): 2
Kidneys: Tubular basophilia, score average (Day 56, 30 kBq): 1.0
Salivary glands: Ductal hyperplasia with inflammatory cells, incidence (Day 56, 30 kBq): 0
Salivary glands: Ductal hyperplasia with inflammatory cells, score average (Day 56, 30 kBq): 0.0
Salivary glands: Hypertrophy acinar, sublingual, incidence (Day 56, 30 kBq): 0
Salivary glands: Hypertrophy acinar, sublingual, score average (Day 56, 30 kBq): 0.0
Salivary glands: Mononuclear cell foci, incidence (Day 56, 30 kBq): 2
Salivary glands: Mononuclear cell foci, score average (Day 56, 30 kBq): 1.0
Salivary glands: Necrosis, multifocal, serous acinar cells, incidence (Day 56, 30 kBq): 0
Salivary glands: Necrosis, multifocal, serous acinar cells, score average (Day 56, 30 kBq): 0.0
Salivary glands: Vacuolation, incidence (Day 56, 30 kBq): 0
Salivary glands: Vacuolation, score average (Day 56, 30 kBq): 0.0
Spleen: Extramedullary hematopoiesis, incidence (Day 56, 30 kBq): 5
Spleen: Extramedullary hematopoiesis, score average (Day 56, 30 kBq): 1.8
Spleen: Hyperplasia, lymphoid, incidence (Day 56, 30 kBq): 0
Spleen: Hyperplasia, lymphoid, score average (Day 56, 30 kBq): 0.0
Spleen: Pigment, incidence (Day 56, 30 kBq): 5
Spleen: Pigment, score average (Day 56, 30 kBq): 2.0
Bone marrow % E (Day 56, mouse M1): 40%
Bone marrow % M (Day 56, mouse M1): 60%
Bone marrow % E (Day 56, mouse M2): 30%
Bone marrow % M (Day 56, mouse M2): 70%
Bone marrow % E (Day 56, mouse M3): 40%
Bone marrow % M (Day 56, mouse M3): 60%
Bone marrow % E (Day 56, mouse M4): 40%
Bone marrow % M (Day 56, mouse M4): 60%
Bone marrow % E (Day 56, mouse M5): 40%
Bone marrow % M (Day 56, mouse M5): 60%
